Test results as given in publication PMC4501791, “Molecular Design, Synthesis and Trypanocidal Activity of Dipeptidyl Nitriles as Cruzain Inhibitors” (PLoS Neglected Tropical Diseases, 2015).

Tests used:
[1] = system: T. cruzi Tulahuen strain amastigotes; experiment: Trypanocidal activity against amastigote forms in LLCMK2 cells, Tulahuen strain; format: cell-based; details: T. cruzi Tulahuen strain; for EC50 / killing at 32 µM: Trypanosoma cruzi; for EC50: LLC-MK2, read-out: pEC50 ama Tula (converted); for EC50 / pEC50 ama Tula: amastigote; for killing at 32 µM: LLC-MK2, 120 h, read-out: %cell lysis at 32 μM ama Tula; for killing at 32 µM / %cell lysis at 32 μM ama Tula: amastigote lysis, 5 days
Description: (§1) The assays against amastigote forms were performed in LLCMK2 cells. Previously, the cells were cultivated in 96-wells microplates (10^3 cells/well). […] After this, the microplates were incubated at 37°C, in CO2 atmosphere, for 5 days. Then, 10 μL of FluoReporter lacZ/Galactosidase Quantitative Kit (Life Technologies) were added and after 30 minutes the fluorometric reaction was read in a microplate reader (Synergy H1, Biotek) at 386 nm excitation and 448 nm emission. For both assays the percentage of parasite lysis was determined from the following formula: %lysis = 100 –{[(X-PC)/(PC-NC)]x100}, where the optical density values of the samples (X), the positive controls (PC) and negative controls (NC) were used. Culture medium was used as positive control (PC) and medium with 0.6% DMSO (v/v) as negative control (NC). All assays were performed in triplicate with two independent experiments.

cruzain [2] = biological target: T1, cruzain (Trypanosoma cruzi, UniProt P25779); experiment: Reversibility assay: recovery of cruzain activity after rapid large dilution; format: biochemical; details: 4.5 μM compound incubated with 15 nM cruzain for 30 min, diluted 100-fold
T1 construct: made in house
Description: The progress curve for this sample was then measured and compared to that of a similar sample of enzyme incubated and diluted in the absence of inhibitor. The irreversible inhibitor E-64 (CAS 66701-25-5, Sigma Aldrich) was used as reference.

cruzain [3] = biological target: T1, cruzain; experiment: biochemical; details: 37°C, pH 5.5, substrate Z-FR-AMC
Description: Enzyme kinetic assays were carried out at 37°C in 200 L of a solution containing 100 mM acetate buffer pH 5.5, 300 mM NaCl, 5 mM DTT (dithiothreitol), 5% v/v DMSO (dimethyl sulfoxide), 0.01% v/v Triton X-100 and 0.15 nM cruzain, using Corning® 96-well black flat bottom microplates. The rate of the reaction was monitored using a Biotek Synergy HT plate reader through the fluorescence emission at 460 nm (excitation at 355 nm) due to the hydrolysis of the substrate Z-Phe-Arg-7-amido-4-methylcoumarin (Z-FR-AMC, Sigma-Aldrich). The enzyme stock aliquot was rapidly thawed at 37°C and kept on ice until activation, in which it was incubated for 20 min. in the assay buffer (100 mM acetate pH 5.5 and 5 mM DTT) followed by additional 2 min. incubation with inhibitors before the reaction was started by the addition of the substrate.
Visual inspection and a pre-reading of plate wells were performed to check for possible precipitation and background fluorescence, respectively. Fluorescence emission spectra were also recorded for all inhibitors, using the same excitation wavelength (355 nm) as for the fluorometric assay. […] The reaction was started by the addition of varying concentrations of the substrate and the wells monitored for a total of 5 minutes of reaction. The initial velocities of the substrate hydrolysis under first-order reaction were calculated by Gen5 Biotek software based on the linear-regression coefficient from the fit to data of Relative Fluorescence Unit (mRFU) as a function of time (min).
Each experiment was performed in duplicates for each compound being tested. […] All inhibitors were evaluated in two different concentrations, which were chosen based on a previous screening (percentage of inhibition) at 1.7 μM substrate (~K M). […] SigmaPlot (v. 10.0) was employed for the non-linear fit and the kinetic parameters determination.

[4] = system: T. cruzi CL-Brener strain amastigotes; experiment: Trypanocidal activity against amastigote forms in LLCMK2 cells, CL-Brener strain; format: cell-based; details: 5 days; for killing at 32 µM: Trypanosoma cruzi, LLC-MK2, 120 h, amastigote lysis, read-out: %cell lysis at 32 μM ama Brener
Description: as §1

LLCMK2 cells = experiment: Lysis of LLCMK2 host cells; format: cell-based; details: for cytotoxicity at 32 µM: Macaca mulatta, LLC-MK2, 32 μM, read-out: %cell lysis at 32 μM LLCMK2
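Wherever pKi is given: fluorometric read-out of substrate hydrolysis at excitation 355 nm and emission 460 nm, initial rates over 5 min, Ki from nonlinear kinetic fits, duplicate runs.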

T1 sequence (P25779 123-337 limits assumed): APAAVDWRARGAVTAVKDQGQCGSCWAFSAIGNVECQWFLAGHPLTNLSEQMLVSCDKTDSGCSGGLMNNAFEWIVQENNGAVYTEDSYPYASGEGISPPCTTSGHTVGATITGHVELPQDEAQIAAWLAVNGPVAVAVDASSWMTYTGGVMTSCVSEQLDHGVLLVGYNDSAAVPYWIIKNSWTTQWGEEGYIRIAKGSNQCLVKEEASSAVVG

Question: What does the source list for N#CCNC(=O)[C@H](Cc1ccccc1)NC(=O)c1ccccc1 [Compound 5, (2S)-N-(cyanomethyl)-3-phenyl-2-(phenylformamido)propanamide]?
Answer: EC50 [1]: 126 µM; reversibility of inhibition (cruzain [2]): reversible; Ki (cruzain [3]): 0.501 µM

Question: With N#CC1(NC(=O)[C@H](Cc2ccccc2)NC(=O)c2ccccc2)CC1 [Compound 7, (2S)-N-(1-cyanocyclopropyl)-3-phenyl-2-(phenylformamido)propanamide] as the compound, how does the killing at 32 µM [1] read?
Answer: 16 ± 10%

Question: And the EC50 [1]?
Answer: 126 µM

Question: What about the Ki (cruzain [3]) of the same compound?
Answer: 0.251 µM

Question: Which Ki (cruzain [3]) does the source give for CC(C)(C#N)NC(=O)[C@H](Cc1ccccc1)NC(=O)c1ccccc1 [Compound 8, (2S)-N-(1-cyano-1-methylethyl)-3-phenyl-2-(phenylformamido)propanamide] here?
Answer: 3.16 µM

Question: What does the source list for N#CCNC(=O)[C@H](Cc1cccc(Cl)c1)NC(=O)c1ccccc1 [Compound 9, (2S)-3-(3-chlorophenyl)-N-(cyanomethyl)-2-(phenylformamido)propanamide]?
Answer: killing at 32 µM [1]: 17 ± 2%; EC50 [1]: 100 µM; melting point: 176 to 178 °C; killing at 32 µM [4]: 24 ± 1%; cytotoxicity at 32 µM (LLCMK2 cells): 12 ± 1%; Ki (cruzain [3]): 0.251 µM

Question: What does the source list for N#CCNC(=O)[C@H](Cc1ccc(O)cc1)NC(=O)c1ccccc1 [Compound 10, (2S)-N-(cyanomethyl)-3-(4-hydroxyphenyl)-2-(phenylformamido)propanamide]?
Answer: killing at 32 µM [1]: 32 ± 4%; EC50 [1]: 200 µM; melting point: 209 to 210 °C; killing at 32 µM [4]: 18 ± 1%; cytotoxicity at 32 µM (LLCMK2 cells): 18 ± 3%; Ki (cruzain [3]): 0.2 µM

Question: With N#CCNC(=O)[C@H](Cc1ccc(OC(=O)c2ccccc2)cc1)NC(=O)c1ccccc1 [Compound 11, 4-[(2S)-2-[(cyanomethyl)carbamoyl]-2-(phenylformamido)ethyl]phenyl benzoate] as the compound, how does the killing at 32 µM [1] read?
Answer: 16 ± 6%

Question: And the EC50 [1]?
Answer: > 316 µM

Question: And the melting point?
Answer: 254 to 256 °C

Question: What about the killing at 32 µM [4] of the same compound?
Answer: 17 ± 1%

Question: What about the cytotoxicity at 32 µM (LLCMK2 cells) of the same compound?
Answer: 8 ± 5%

Question: And the Ki (cruzain [3])?
Answer: 1.26 µM

Question: With N#CCNC(=O)[C@H](CCCNC(=N)N)NC(=O)c1ccccc1 [Compound 13, (2S)-5-carbamimidamido-N-(cyanomethyl)-2-(phenylformamido)pentanamide] as the compound, how does the melting point read?
Answer: 117 to 118 °C

Question: What about the Ki (cruzain [3]) of the same compound?
Answer: 126 µM

Question: What does the source list for N#CCNC(=O)C1(NC(=O)c2ccccc2)CCCC1 [Compound 14, N-(1-[(cyanomethyl)carbamoyl]cyclopentyl)benzamide]?
Answer: killing at 32 µM [1]: 25 ± 4%; EC50 [1]: 200 µM; melting point: 165 to 166 °C; killing at 32 µM [4]: 9 ± 1%; cytotoxicity at 32 µM (LLCMK2 cells): 18 ± 1%; Ki (cruzain [3]): 7.94 µM

Question: With N#CCNC(=O)[C@H](Cc1ccccc1)NC(=O)C(F)(F)F [Compound 15, (2S)-N-(cyanomethyl)-3-phenyl-2-(trifluoroacetamido)propanamide] as the compound, how does the Ki (cruzain [3]) read?
Answer: 3.98 µM

Question: Which results are given for N#CCNC(=O)[C@H](Cc1ccccc1)NC(=O)c1cccs1 [Compound 16, (2S)-N-(cyanomethyl)-3-phenyl-2-(thiophen-2-ylformamido)propanamide]?
Answer: killing at 32 µM [1]: 30 ± 11%; EC50 [1]: 63.1 µM; killing at 32 µM [4]: 24 ± 2%; cytotoxicity at 32 µM (LLCMK2 cells): 19 ± 4%; Ki (cruzain [3]): 0.794 µM

Question: What does the source list for N#CCNC(=O)[C@H](Cc1ccccc1)NC(=O)c1ccco1 [Compound 17, (2S)-N-(cyanomethyl)-2-(furan-2-ylformamido)-3-phenylpropanamide]?
Answer: killing at 32 µM [1]: 36 ± 1%; EC50 [1]: 100 µM; melting point: 176 to 179 °C; killing at 32 µM [4]: 21 ± 2%; cytotoxicity at 32 µM (LLCMK2 cells): 24 ± 0.2%; Ki (cruzain [3]): 0.501 µM

Question: For N#CCNC(=O)[C@H](Cc1ccccc1)NC(=O)c1ccncn1 [Compound 18, (2S)-N-(cyanomethyl)-3-phenyl-2-(pyrimidin-4-ylformamido)propanamide], which killing at 32 µM [1] is on record?
Answer: 17 ± 2%

Question: And the EC50 [1]?
Answer: 200 µM

Question: And the melting point?
Answer: 171 to 173 °C

Question: And the killing at 32 µM [4]?
Answer: 18 ± 1%

Question: What about the cytotoxicity at 32 µM (LLCMK2 cells) of the same compound?
Answer: 20 ± 1%

Question: And the Ki (cruzain [3])?
Answer: 1.26 µM

Question: For N#CCNC(=O)[C@H](Cc1ccccc1)NC(=O)c1cnccn1 [Compound 19, (2S)-N-(cyanomethyl)-3-phenyl-2-(pyrazin-2-ylformamido)propanamide], which killing at 32 µM [1] is on record?
Answer: 22 ± 7%

Question: What about the EC50 [1] of the same compound?
Answer: 79.4 µM

Question: What about the killing at 32 µM [4] of the same compound?
Answer: 21 ± 8%

Question: What about the cytotoxicity at 32 µM (LLCMK2 cells) of the same compound?
Answer: 14 ± 1%

Question: What about the Ki (cruzain [3]) of the same compound?
Answer: 1.58 µM

Question: Which results are given for N#CCNC(=O)[C@H](Cc1ccccc1)NC(=O)c1cncc(Br)c1 [Compound 20, (2S)-2-[(5-bromopyridin-3-yl)formamido]-N-(cyanomethyl)-3-phenylpropanamide]?
Answer: killing at 32 µM [1]: 0%; killing at 32 µM [4]: 25 ± 8%; cytotoxicity at 32 µM (LLCMK2 cells): 17 ± 1%; Ki (cruzain [3]): 0.251 µM

Question: With Cn1nc(C(C)(C)C)cc1C(=O)N[C@@H](Cc1ccccc1)C(=O)NCC#N [Compound 21, (2S)-2-[(3-tert-butyl-1-methyl-1H-pyrazol-5-yl)formamido]-N-(cyanomethyl)-3-phenylpropanamide] as the compound, how does the melting point read?
Answer: 160 to 162 °C

Question: And the Ki (cruzain [3])?
Answer: 0.0631 µM

Question: Which “%cell lysis at 32 μM ama Tula” value [1] does the source give for Cn1nc(C(F)(F)F)cc1C(=O)N[C@@H](Cc1ccccc1)C(=O)NCC#N [Compound 22] here?
Answer: 48 ± 4%

Question: What about the “pEC50 ama Tula” value [1] of the same compound?
Answer: 4.0

Question: What about the “%cell lysis at 32 μM ama Brener” value [4] of the same compound?
Answer: 20 ± 2%

Question: And the “%cell lysis at 32 μM LLCMK2” value (LLCMK2 cells)?
Answer: 19 ± 0.4%

Question: What about the pKi (cruzain [3]) of the same compound?
Answer: 6.3

Question: With N#CCNC(=O)[C@H](Cc1ccccc1)NC(=O)c1cc(=O)[nH]c(=O)[nH]1 [Compound 23, (2S)-N-(cyanomethyl)-2-[(2,6-dioxo-1,2,3,6-tetrahydropyrimidin-4-yl)formamido]-3-phenyl propanamide] as the compound, how does the “%cell lysis at 32 μM ama Tula” value [1] read?
Answer: 0%

Question: And the “%cell lysis at 32 μM ama Brener” value [4]?
Answer: 27 ± 1%

Question: And the “%cell lysis at 32 μM LLCMK2” value (LLCMK2 cells)?
Answer: 22 ± 5%

Question: What about the pKi (cruzain [3]) of the same compound?
Answer: 5.9

Question: For N#CCNC(=O)[C@H](Cc1ccccc1)NC(=O)OCc1ccccc1 [Compound 24, Benzyl N-[(1S)-1-[(cyanomethyl)carbamoyl]-2-phenylethyl]carbamate], which Ki (cruzain [3]) is on record?
Answer: 0.501 µM

Question: Which results are given for CC(C)(C)OC(=O)N[C@@H](Cc1ccccc1)C(=O)NCC#N [Compound 25, Tert-butyl-N-[(1S)-1-[(cyanomethyl)carbamoyl]-2-phenylethyl]carbamete]?
Answer: %cell lysis at 32 μM ama Tula [1]: 37 ± 1%; pEC50 ama Tula [1]: 4.1; %cell lysis at 32 μM ama Brener [4]: 23 ± 2%; %cell lysis at 32 μM LLCMK2 (LLCMK2 cells): 31 ± 2%; pKi (cruzain [3]): 5.6

Question: For CC(C)C[C@H](NC(=O)OC(C)(C)C)C(=O)NCC#N [Compound 27, tert-butyl N-[(1S)-1-[(cyanomethyl)carbamoyl]-3-methylbutyl]carbamate], which killing at 32 µM [1] is on record?
Answer: 0%

Question: What about the killing at 32 µM [4] of the same compound?
Answer: 19 ± 3%

Question: What about the cytotoxicity at 32 µM (LLCMK2 cells) of the same compound?
Answer: 0%

Question: What about the Ki (cruzain [3]) of the same compound?
Answer: 1.26 µM

Question: Which results are given for CC(C)C[C@H](NC(=O)c1cc(C(C)(C)C)nn1C)C(=O)NCC#N [Compound 29, (2S)-2-[(3-tert-butyl-1-methyl-1H-pyrazol-5-yl)formamido]-N-(cyanomethyl)-4 methylpentanamide]?
Answer: killing at 32 µM [1]: 17 ± 4%; melting point: 179 to 180 °C; killing at 32 µM [4]: 10 ± 1%; cytotoxicity at 32 µM (LLCMK2 cells): 27 ± 18%; Ki (cruzain [3]): 0.0631 µM

Question: With CC(C)C[C@H](NC(=O)c1cc(C(C)(C)C)nn1C)C(=O)NC1(C#N)CC1 [Compound 30, (2S)-2-[(3-tert-butyl-1-methyl-1H-pyrazol-5-yl)formamido]-N-(1-cyanocyclopropyl)-4-methylpentanamide] as the compound, how does the killing at 32 µM [4] read?
Answer: 11 ± 6%

Question: And the Ki (cruzain [3])?
Answer: 0.0251 µM

Question: Which Ki (cruzain [3]) does the source give for CC(C)C[C@H](NC(=O)OC(C)(C)C)C(=O)NC1(C#N)CC1 [Compound 31, tert-butyl N-[(1S)-1-[(1-cyanocyclopropyl)carbamoyl]-3-methylbutyl]carbamate] here?
Answer: 0.631 µM

Question: What does the source list for CC(C)(C)C[C@H](NC(=O)c1ccccc1)C(=O)NC1(C#N)CC1 [Compound 32, (2S)-N-(1-cyanocyclopropyl)-4,4-dimethyl-2-(phenylformamido)pentanamide]?
Answer: melting point: 186 to 187 °C; Ki (cruzain [3]): 25.1 µM

Question: With Cn1nc(C(F)(F)F)cc1C(=O)N[C@@H](Cc1ccccc1)C(=O)NC1(C#N)CC1 [Compound 33, (2S)-N-(1-cyanocyclopropyl)-2-{[1-methyl-3-(trifluoromethyl)-1H-pyrazol-5-yl]formamido}-3-phenylpropanamide] as the compound, how does the melting point read?
Answer: 211 to 212 °C

Question: And the killing at 32 µM [4]?
Answer: 22 ± 10%

Question: And the Ki (cruzain [3])?
Answer: 0.398 µM

Question: With Cn1nc(C(C)(C)C)cc1C(=O)N[C@@H](Cc1ccccc1)C(=O)NC1(C#N)CC1 [Compound 34, (2S)-2-[(5-tert-butyl-2-methylpyrazol-3-yl)formamido]-N-(1-cyanocyclopropyl)-3-phenylpropanamide] as the compound, how does the killing at 32 µM [1] read?
Answer: 0%

Question: And the killing at 32 µM [4]?
Answer: 23 ± 3%

Question: And the cytotoxicity at 32 µM (LLCMK2 cells)?
Answer: 17 ± 3%

Question: What about the Ki (cruzain [3]) of the same compound?
Answer: 0.0631 µM

Question: Which melting point does the source give for N#CC1(NC(=O)[C@H](Cc2ccccc2)NC(=O)c2cnccn2)CC1 [Compound 35, (2S)-N-(1-cyanocyclopropyl)-3-phenyl-2-(pyrazin-2-ylformamido)propanamide] here?
Answer: 162 to 164 °C

Question: And the Ki (cruzain [3])?
Answer: 0.501 µM

Question: With N#Cc1cccc(C[C@H](NC(=O)c2ccccc2)C(=O)NC2(C#N)CC2)c1 [Compound 36, (2S)-N-(1-cyanocyclopropyl)-3-(3-cyanophenyl)-2-(phenylformamido)propanamide] as the compound, how does the melting point read?
Answer: 191 to 194 °C

Question: And the Ki (cruzain [3])?
Answer: 3.98 µM

Question: For N#CC1(NC(=O)C2(NC(=O)c3ccccc3)CCCC2)CC1 [Compound 37], which “%cell lysis at 32 μM ama Tula” value [1] is on record?
Answer: 34 ± 5%

Question: And the “pEC50 ama Tula” value [1]?
Answer: 4.1

Question: What about the “%cell lysis at 32 μM ama Brener” value [4] of the same compound?
Answer: 8 ± 3%

Question: What about the “%cell lysis at 32 μM LLCMK2” value (LLCMK2 cells) of the same compound?
Answer: 26 ± 3%

Question: And the pKi (cruzain [3])?
Answer: 4.9
